The source made the active and inactive calls. No cut-off for these calls is given here.
Legend:
[1] = biological target: T1, Adenosine receptor A1 (Homo sapiens) (UniProt P30542); assay: Inhibition of human recombinant A1 receptor at 10 uM by radioligand binding assay
T1 sequence (whole entry): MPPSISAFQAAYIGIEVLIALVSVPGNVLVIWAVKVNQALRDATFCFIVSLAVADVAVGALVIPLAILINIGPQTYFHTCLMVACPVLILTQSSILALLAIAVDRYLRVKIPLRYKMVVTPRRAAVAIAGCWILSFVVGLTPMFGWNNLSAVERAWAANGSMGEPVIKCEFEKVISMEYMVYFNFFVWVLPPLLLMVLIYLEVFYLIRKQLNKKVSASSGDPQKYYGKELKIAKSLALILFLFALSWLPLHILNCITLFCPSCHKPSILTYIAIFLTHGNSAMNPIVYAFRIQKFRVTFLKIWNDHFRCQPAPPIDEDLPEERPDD

[2] = Inhibition of GSNOR expressed in Escherichia coli using GSNO by plate method
[3] = organism: Homo sapiens; assay: Inhibition of human recombinant BZD receptor at 10 uM by radioligand binding assay
[4] = biological target: T2, 5-hydroxytryptamine receptor 3A (Homo sapiens) (UniProt P46098); assay: Inhibition of human recombinant 5HT3 receptor at 10 uM by radioligand binding assay
T2 sequence (whole entry): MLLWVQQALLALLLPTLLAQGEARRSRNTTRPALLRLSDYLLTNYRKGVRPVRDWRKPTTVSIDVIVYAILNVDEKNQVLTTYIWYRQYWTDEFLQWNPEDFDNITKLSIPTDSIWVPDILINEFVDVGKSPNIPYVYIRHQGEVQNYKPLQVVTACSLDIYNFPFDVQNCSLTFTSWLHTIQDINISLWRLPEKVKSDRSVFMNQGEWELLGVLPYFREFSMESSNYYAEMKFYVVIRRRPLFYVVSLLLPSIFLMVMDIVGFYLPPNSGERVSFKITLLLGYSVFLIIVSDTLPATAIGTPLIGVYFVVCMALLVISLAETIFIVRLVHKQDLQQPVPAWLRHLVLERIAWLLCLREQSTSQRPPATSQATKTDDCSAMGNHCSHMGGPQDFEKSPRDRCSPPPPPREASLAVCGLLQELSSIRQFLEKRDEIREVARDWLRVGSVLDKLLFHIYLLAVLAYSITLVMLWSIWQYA

[5] = biological target: 5-hydroxytryptamine receptor 7 (Homo sapiens) (UniProt P34969); assay: Inhibition of human recombinant 5HT7 receptor at 10 uM by radioligand binding assay
[6] = organism: Homo sapiens; assay: Inhibition of human recombinant sodium channel at 10 uM by radioligand binding assay
[7] = biological target: T3, Vasoactive intestinal polypeptide receptor 1 (Homo sapiens) (UniProt P32241); assay: Inhibition of human recombinant VPAC1 receptor at 10 uM by radioligand binding assay
T3 sequence (whole entry): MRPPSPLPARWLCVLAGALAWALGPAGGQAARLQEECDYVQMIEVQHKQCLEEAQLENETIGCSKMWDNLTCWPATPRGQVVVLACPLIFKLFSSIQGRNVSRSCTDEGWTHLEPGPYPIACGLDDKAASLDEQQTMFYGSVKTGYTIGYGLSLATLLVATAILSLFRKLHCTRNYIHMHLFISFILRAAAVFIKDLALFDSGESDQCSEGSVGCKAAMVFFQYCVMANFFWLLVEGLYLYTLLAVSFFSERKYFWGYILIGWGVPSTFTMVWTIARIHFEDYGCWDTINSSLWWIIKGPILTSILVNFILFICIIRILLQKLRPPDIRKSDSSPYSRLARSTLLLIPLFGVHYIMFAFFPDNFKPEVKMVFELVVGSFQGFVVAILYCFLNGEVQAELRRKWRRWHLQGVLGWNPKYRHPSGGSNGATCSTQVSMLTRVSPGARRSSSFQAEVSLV

[8] = biological target: Sodium-dependent noradrenaline transporter (Homo sapiens) (UniProt P23975); assay: Inhibition of human recombinant NET at 10 uM by radioligand binding assay
[9] = biological target: T4, Substance-K receptor (Homo sapiens) (UniProt P21452); assay: Inhibition of human recombinant NK2 receptor at 10 uM by radioligand binding assay
T4 sequence (whole entry): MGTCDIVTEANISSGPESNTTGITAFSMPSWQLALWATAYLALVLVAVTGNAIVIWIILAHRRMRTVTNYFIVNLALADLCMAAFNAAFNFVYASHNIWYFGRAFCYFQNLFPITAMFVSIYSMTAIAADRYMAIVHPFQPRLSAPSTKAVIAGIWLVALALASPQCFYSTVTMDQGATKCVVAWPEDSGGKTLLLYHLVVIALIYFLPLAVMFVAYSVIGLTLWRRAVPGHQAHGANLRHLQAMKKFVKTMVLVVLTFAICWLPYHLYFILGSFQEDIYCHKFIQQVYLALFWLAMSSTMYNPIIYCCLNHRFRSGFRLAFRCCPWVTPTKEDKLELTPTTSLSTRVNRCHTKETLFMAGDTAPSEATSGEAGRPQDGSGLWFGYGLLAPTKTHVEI

[10] = biological target: T5, Neuromedin-K receptor (Homo sapiens) (UniProt P29371); assay: Inhibition of human recombinant NK3 receptor at 10 uM by radioligand binding assay
T5 sequence (whole entry): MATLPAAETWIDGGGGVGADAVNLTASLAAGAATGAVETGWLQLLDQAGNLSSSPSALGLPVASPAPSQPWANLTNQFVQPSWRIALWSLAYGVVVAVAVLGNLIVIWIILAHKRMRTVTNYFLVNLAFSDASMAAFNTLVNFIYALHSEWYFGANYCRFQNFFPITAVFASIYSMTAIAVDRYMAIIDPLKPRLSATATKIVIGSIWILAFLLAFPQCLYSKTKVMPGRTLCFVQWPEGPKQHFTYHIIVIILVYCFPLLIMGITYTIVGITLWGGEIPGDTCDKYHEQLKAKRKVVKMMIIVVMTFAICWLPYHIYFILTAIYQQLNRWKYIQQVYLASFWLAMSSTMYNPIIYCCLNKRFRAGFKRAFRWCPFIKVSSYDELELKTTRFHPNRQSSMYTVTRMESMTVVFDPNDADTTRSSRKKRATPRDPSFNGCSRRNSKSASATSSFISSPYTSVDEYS

[11] = biological target: Histamine H1 receptor (Homo sapiens) (UniProt P35367); assay: Inhibition of human recombinant H1 receptor at 10 uM by radioligand binding assay
[12] = biological target: Sodium-dependent dopamine transporter (Homo sapiens) (UniProt Q01959); assay: Inhibition of human recombinant DAT at 10 uM by radioligand binding assay
[13] = biological target: Mu-type opioid receptor (Homo sapiens) (UniProt P35372); assay: Inhibition of human recombinant MOP receptor at 10 uM by radioligand binding assay
[14] = biological target: Beta-1 adrenergic receptor (Homo sapiens) (UniProt P08588); assay: Inhibition of human recombinant beta1 receptor at 10 uM by radioligand binding assay
[15] = Inhibition of GSNOR expressed in Escherichia coli using GSNO by cuvette method
[16] = organism: Homo sapiens; assay: Inhibition of human recombinant chloride channel at 10 uM by radioligand binding assay
[17] = tested on: 5-hydroxytryptamine receptor 2A; assay: Inhibition of human recombinant 5HT2A receptor at 10 uM by radioligand binding assay

Sequence of 5-hydroxytryptamine receptor 7 (Homo sapiens) (P34969 whole entry): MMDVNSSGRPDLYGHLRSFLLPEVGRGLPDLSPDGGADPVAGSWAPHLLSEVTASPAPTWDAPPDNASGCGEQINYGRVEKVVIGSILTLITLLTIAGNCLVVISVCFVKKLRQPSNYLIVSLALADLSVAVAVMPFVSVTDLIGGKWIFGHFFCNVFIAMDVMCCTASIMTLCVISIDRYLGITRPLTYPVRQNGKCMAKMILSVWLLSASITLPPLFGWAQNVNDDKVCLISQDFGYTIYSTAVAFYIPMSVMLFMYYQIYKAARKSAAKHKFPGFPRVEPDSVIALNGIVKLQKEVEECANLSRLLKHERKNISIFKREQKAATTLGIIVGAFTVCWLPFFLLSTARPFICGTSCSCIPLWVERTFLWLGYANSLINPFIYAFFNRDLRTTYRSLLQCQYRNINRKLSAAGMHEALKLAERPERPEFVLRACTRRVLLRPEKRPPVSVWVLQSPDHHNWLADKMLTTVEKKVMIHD
Sequence of Beta-1 adrenergic receptor (Homo sapiens) (P08588 whole entry, looked up): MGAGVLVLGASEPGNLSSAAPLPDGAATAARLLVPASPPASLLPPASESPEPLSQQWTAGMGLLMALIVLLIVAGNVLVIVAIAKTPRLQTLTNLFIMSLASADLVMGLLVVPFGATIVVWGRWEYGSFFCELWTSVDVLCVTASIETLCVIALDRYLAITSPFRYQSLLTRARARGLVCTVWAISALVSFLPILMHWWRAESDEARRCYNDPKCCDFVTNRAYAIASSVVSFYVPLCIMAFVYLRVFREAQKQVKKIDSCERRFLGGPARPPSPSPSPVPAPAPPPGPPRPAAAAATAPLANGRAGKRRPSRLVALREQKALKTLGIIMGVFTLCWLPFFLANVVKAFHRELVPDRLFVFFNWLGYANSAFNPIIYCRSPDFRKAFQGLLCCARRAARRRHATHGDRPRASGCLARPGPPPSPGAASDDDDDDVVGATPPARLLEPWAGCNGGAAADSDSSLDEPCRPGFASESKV
Sequence of Histamine H1 receptor (Homo sapiens) (P35367 whole entry): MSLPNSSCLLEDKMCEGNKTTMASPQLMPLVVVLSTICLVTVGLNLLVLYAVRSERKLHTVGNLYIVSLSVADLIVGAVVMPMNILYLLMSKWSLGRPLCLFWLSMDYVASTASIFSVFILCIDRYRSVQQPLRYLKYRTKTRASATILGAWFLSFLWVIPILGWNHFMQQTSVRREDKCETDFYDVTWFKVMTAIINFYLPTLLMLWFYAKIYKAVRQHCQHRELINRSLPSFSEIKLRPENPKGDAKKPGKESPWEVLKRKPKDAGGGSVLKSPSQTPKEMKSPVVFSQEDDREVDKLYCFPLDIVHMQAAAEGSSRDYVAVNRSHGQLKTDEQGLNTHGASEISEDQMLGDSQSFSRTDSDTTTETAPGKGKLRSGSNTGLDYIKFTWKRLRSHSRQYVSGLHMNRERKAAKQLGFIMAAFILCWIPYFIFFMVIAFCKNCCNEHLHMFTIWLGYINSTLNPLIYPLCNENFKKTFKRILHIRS
Sequence of Sodium-dependent noradrenaline transporter (Homo sapiens) (P23975 whole entry): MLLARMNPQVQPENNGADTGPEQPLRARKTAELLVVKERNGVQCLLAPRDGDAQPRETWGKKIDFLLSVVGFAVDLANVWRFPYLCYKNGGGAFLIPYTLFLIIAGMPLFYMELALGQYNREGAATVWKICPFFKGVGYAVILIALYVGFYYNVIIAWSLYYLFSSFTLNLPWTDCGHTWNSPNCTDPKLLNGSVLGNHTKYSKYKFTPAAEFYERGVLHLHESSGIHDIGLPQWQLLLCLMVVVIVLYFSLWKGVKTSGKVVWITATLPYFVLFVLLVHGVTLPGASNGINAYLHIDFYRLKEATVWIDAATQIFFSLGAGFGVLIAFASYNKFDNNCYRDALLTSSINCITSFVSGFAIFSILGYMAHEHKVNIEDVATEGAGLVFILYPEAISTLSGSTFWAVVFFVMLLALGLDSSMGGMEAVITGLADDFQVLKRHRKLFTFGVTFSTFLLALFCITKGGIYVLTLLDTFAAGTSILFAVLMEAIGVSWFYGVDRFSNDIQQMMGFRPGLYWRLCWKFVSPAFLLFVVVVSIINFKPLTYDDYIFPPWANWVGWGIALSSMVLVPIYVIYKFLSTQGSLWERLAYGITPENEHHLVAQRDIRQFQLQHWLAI
Sequence of Sodium-dependent dopamine transporter (Homo sapiens) (Q01959 whole entry): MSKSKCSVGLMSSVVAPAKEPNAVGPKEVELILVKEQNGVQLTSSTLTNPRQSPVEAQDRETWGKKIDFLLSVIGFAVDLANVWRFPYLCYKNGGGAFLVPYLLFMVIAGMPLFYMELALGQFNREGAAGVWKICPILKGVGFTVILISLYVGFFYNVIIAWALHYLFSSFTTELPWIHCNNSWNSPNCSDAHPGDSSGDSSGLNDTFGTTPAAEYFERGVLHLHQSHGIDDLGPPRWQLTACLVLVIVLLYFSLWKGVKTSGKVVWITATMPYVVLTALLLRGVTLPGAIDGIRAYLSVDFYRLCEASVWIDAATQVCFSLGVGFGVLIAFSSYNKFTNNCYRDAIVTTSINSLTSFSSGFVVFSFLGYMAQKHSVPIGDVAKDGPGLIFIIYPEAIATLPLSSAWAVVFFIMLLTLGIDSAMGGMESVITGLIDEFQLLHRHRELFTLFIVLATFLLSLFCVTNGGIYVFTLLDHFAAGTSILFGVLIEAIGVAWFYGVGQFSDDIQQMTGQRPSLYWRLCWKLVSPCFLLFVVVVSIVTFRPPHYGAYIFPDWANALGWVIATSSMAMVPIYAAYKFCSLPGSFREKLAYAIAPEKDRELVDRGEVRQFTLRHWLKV
Sequence of Mu-type opioid receptor (Homo sapiens) (P35372 whole entry): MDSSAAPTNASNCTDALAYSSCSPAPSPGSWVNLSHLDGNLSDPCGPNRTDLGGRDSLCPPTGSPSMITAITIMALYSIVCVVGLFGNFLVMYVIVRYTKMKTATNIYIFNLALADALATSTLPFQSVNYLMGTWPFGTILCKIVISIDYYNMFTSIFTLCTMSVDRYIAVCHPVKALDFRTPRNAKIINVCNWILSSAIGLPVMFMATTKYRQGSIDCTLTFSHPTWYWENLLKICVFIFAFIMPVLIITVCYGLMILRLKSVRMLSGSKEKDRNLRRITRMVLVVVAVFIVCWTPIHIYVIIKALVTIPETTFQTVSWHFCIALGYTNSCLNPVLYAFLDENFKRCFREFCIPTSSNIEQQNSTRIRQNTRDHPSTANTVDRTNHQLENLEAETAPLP

inhibition [1]	IC50 [2]	inhibition [3]	inhibition [4]	inhibition [5]	inhibition [6]	inhibition [7]	inhibition [8]	inhibition [9]	inhibition [10]	inhibition [11]	inhibition [12]	inhibition [13]	inhibition [14]	IC50 [15]	inhibition [16]	inhibition [17]	SMILES
inactive	10 nM	inactive	inactive	inactive	inactive	inactive	inactive	inactive	inactive	inactive	inactive	inactive	inactive	20 nM	inactive	–	Cc1cc(C(N)=O)ccc1-n1c(CCC(=O)O)ccc1-c1ccc(-n2ccnc2)cc1 [N6022]
inactive	35 nM	inactive	inactive	inactive	inactive	inactive	inactive	inactive	inactive	inactive	inactive	inactive	inactive	–	inactive	inactive	Cc1cc(C(N)=O)ccc1-c1c(-c2ccc(-n3ccnc3)cc2)ccn1CCC(=O)O
Active	–	Active	Active	Active	Active	Active	Active	Active	Active	Active	Active	Active	Active	280 nM	Active	Active	COc1ccc(-c2ccn(-c3ccc(C(=O)O)c(O)c3)c2-c2ccc(C(N)=O)cc2C)cc1
inactive	9.9 nM	inactive	inactive	inactive	inactive	inactive	inactive	inactive	inactive	inactive	inactive	inactive	inactive	–	inactive	inactive	Cc1cc(C(N)=O)ccc1-c1c(CCC(=O)O)ccn1-c1ccc(-n2ccnc2)cc1
Active	–	Active	Active	Active	Active	Active	Active	Active	Active	Active	Active	Active	Active	190 nM	Active	Active	COc1ccc(-c2ccn(-c3ccc(O)c([N+](=O)[O-])c3)c2-c2ccc(C(N)=O)cc2C)cc1
